# Results taken from patent publication US9358247B2, “Methods and compositions for promoting activity of anti-cancer therapies” (Oncology Research International Limited, priority 2006, dated 2016).
# Like-named read-outs stand apart in the source and are kept apart here.
# What was measured:
# HT29 human cells = assay: In vivo tumour volume, HT29 cells subcutaneously introduced into mice, 5-fluorouracil and deltonin; design: species or system Balb/c nude female mice; conditions: 5-Fluorouracil 37.5 mg/kg 1 × weekly
# Description: 5-Fluorouracil (5FU) is the principal chemotherapeutic drug used in treating colon cancer; it is most commonly co-administered with other chemotherapeutic agents. This study compared the co-administration of 5-fluoruracil and deltonin, with administration of mono-administration of both 5-fluorourcil and deltonin.
# 72 female Balb/c nude female mice were microchipped, weighed and randomised based on body weight into 8 groups with 9 mice per group. […]
# HT29 human […] carcinoma cells were cultured in RPMI1640 cell culture medium, which was supplemented with 10% FBS and penicillin-streptomycin (50 IU/mL final concentration). The cells were harvested by trypsinisation, washed twice in HBSS and counted. The cells were then resuspended in HBSS and adjusted to a final volume containing 2×10^7 cells/mL. For inoculation, the needle was introduced through the skin into the subcutaneous space just below the right shoulder, where 100 μL of cells (2×10^6) were discharged.
# When the tumour volumes had reached an average of greater than 200 mm^3, treatment was started (Day 0). Tumour volumes were measured 3-times weekly, and determined according to the formula: V(mm^3)=length×diameter^2×π/6
# Treatment was continued for 17 days. The mean tumour volumes for each dosage regime are given in Table 24 and are presented graphically in FIG. 1: […]
# A549 cell line = assay: Cancer cell growth inhibition, SRB dye assay (single agents and 50:50 IC50 mixtures); type: cell-based, human
# Description: (§1) Cancer cells were seeded the day before application of drug in triplicate or quadruplicate in 96-well plates, allowed to grow in the presence of drug for 6 days before cell growth relative to untreated control wells was determined with a dye assay.
# (§2) Cells were seeded in triplicate or quadruplicate at 3-4,000 per microtitre well in 90 μl of RPMI culture medium/10% foetal calf serum/penicillin, streptomycin mix, treated with 10 μl of drug (prepared in a dilution plate at 10× concentration required), and allowed to grow until the controls were nearly confluent (6 days).
# (§3) SRB: Plates were washed with PBS, fixed with methylated spirits, washed with tap water and stained with 50 μL/well of SRB solution (sulforhodamine, 0.4% in 1% acetic acid), followed by washing with tap water and 1% acetic acid, solubilisation in Tris and absorbance read at 564 nm in an ELISA reader.
# (§4) Data was collected using ELISA plate reader software—SOFTmax PRO3.1.2, then imported into EXCEL. The mean and SD of replicates were calculated as a % of control, after subtraction of the blank value (wells with no cells). A graph was plotted of % control vs dose of agent and IC50 (half maximal inhibitory concentration) values determined.
# (§5) Tumour cells were seeded in duplicate in 96-well plates at 2-5,000 per microtitre well containing RPMI culture medium/10% foetal calf serum. The cells were allowed to grow until the controls were nearly confluent after 5-6 days. Plates were then washed with PBS, fixed in ethanol and stained with 50 μL/well of SRB solution (sulforhodamine, 0.4% in 1% acetic acid), followed by washing with 1% acetic acid and solubilisation in Tris. The absorbance was read at 564 nm using an ELISA reader.
# (§6) The IC50, or concentration required to inhibit cell growth by 50%, was determined from the percentage inhibition versus concentration data using the probit calculation methods of Finney (Finney D J (1971). Probit Analysis. 3rd Edition. Cambridge University Press).
# (§7) The inhibitory data from each mixture was used to determine an IC50 of IC50 value, where the concentrations used were the Multiplying Factor values. In order to determine the actual IC50 contribution of each component in the two-component mixture, the IC50 of IC50 value was multiplied by the IC50 of the individual component. This can then be used to determine the reduction in IC50 contribution (ie, reduction in dose) of the chemotherapeutic agent due to the presence of the steroid saponin in the mixture. A simpler way of determining the reduction in dose is to use the following simple formula: […]
# DU145 cell line = assay: as above; type: cell-based, human; conditions: single agent, Example 2
# Description: as §1, §2, §3, §4, §5, §6, §7
# HT29 cell line = assay: as above; type: cell-based, human; conditions: single agent, Example 2
# Description: as §1, §2, §3, §4, §5, §6, §7
# PC3 cell line = assay: as above; type: cell-based, human; conditions: single agent, Example 2
# Description: as §1, §2, §3, §4, §5, §6, §7
# LNCap cell line = assay: as above; type: cell-based, human; conditions: for Vincristine Dose Reduction: 50:50 IC50 mixture vs vincristine alone, Example 3
# Description: (§8) Cancer cells were seeded the day before application of drug in triplicate or quadruplicate in 96-well plates, allowed to grow in the presence of drug for 6 days before cell growth relative to untreated control wells was determined with a dye assay. Cells were seeded in triplicate or quadruplicate at 3-4,000 per microtitre well in 90 μl of RPMI culture medium/10% foetal calf serum/penicillin, streptomycin mix, treated with 10 μl of drug (prepared in a dilution plate at 10× concentration required), and allowed to grow until the controls were nearly confluent (6 days). SRB: Plates were washed with PBS, fixed with methylated spirits, washed with tap water and stained with 50 μL/well of SRB solution (sulforhodamine, 0.4% in 1% acetic acid), followed by washing with tap water and 1% acetic acid, solubilisation in Tris and absorbance read at 564 nm in an ELISA reader. Data was collected using ELISA plate reader software—SOFTmax PRO3.1.2, then imported into EXCEL. The mean and SD of replicates were calculated as a % of control, after subtraction of the blank value (wells with no cells). A graph was plotted of % control vs dose of agent and IC50 (half maximal inhibitory concentration) values determined. […] The cells were allowed to grow until the controls were nearly confluent after 5-6 days. Plates were then washed with PBS, fixed in ethanol and stained with 50 μL/well of SRB solution (sulforhodamine, 0.4% in 1% acetic acid), followed by washing with 1% acetic acid and solubilisation in Tris. The absorbance was read at 564 nm using an ELISA reader. […] Cambridge University Press). […] The inhibitory data from each mixture was used to determine an IC50 of IC50 value, where the concentrations used were the Multiplying Factor values. In order to determine the actual IC50 contribution of each component in the two-component mixture, the IC50 of IC50 value was multiplied by the IC50 of the individual component. This can then be used to determine the reduction in IC50 contribution (ie, reduction in dose) of the chemotherapeutic agent due to the presence of the steroid saponin in the mixture. A simpler way of determining the reduction in dose is to use the following simple formula: […]
# MCF7 cell line = assay: as above; type: cell-based, human; conditions: for Vincristine Dose Reduction: 50:50 IC50 mixture vs vincristine alone, Example 3
# Description: as §8
# K562 cell line = assay: as above; type: cell-based, human
# Description: as §1, §2, §3, §4, §5, §6, §7
# The cell seeding and ELISA plate methodology of Example 2 were used for determining inhibition of the K562 cell line.
# [1] = tested on: PC3, DU145, A549 and HT29 cell lines; assay: Cancer cell growth inhibition, IC50 values used in assay for four cell lines (Example 5); type: cell-based, human; conditions: value used to make up 50:50 IC50 mixtures
# Description: as §5, §6
# The cell seeding and ELISA plate methodology of Example 2 were used for determining inhibition of four cancer cell lines. IC50 values were determined for the steroid saponins dioscin, deltonin and prosapogenin A, and their mixtures with cisplatin, docetaxel, doxorubicin and vincristine, using PC3, DU145, A549 and HT29 cell lines.
# [2] = single agent, Example 2, read-out: IC50
# [3] = Example 3, value used to make up 50:50 IC50 mixtures, read-out: IC50 values used in assay
# [4] = Homo sapiens, 144 h, Example 4, value used to make up 50:50 IC50 mixtures, read-out: IC50 values used in assay
# [5] = Homo sapiens, 144 h, Example 3, value used to make up 50:50 IC50 mixtures, read-out: IC50 values used in assay
# [6] = Homo sapiens, 144 h, single agent, Example 2, read-out: IC50
# [7] = Example 4, value used to make up 50:50 IC50 mixtures, read-out: IC50 values used in assay
IC50 (LNCap cell line; [5]) [nM],IC50 (MCF7 cell line; [5]) [nM],IC50 ([1]; Homo sapiens) [nM],IC50 (A549 cell line; [6]) [nM],"IC50 (DU145 cell line; Homo sapiens, DU-145, 144 h) [nM]","IC50 (HT29 cell line; Homo sapiens, HT-29, 144 h) [nM]","IC50 (PC3 cell line; Homo sapiens, PC-3, 144 h) [nM]",IC50 (LNCap cell line; [6]) [nM],IC50 (MCF7 cell line; [6]) [nM],IC50 (K562 cell line; [6]) [nM],Compound,further results
–,–,–,–,–,–,–,–,–,–,"O=c1[nH]cc(F)c(=O)[nH]1 [5-Fluorouracil (5FU), 5-Fluorouracil]",Mean tumour volume (HT29 human cells; Day 0): 236 mm^3; Mean tumour volume (HT29 human cells; Day 2): 280 mm^3; Mean tumour volume (HT29 human cells; Day 4): 307 mm^3; Mean tumour volume (HT29 human cells; Day 7): 330 mm^3; Mean tumour volume (HT29 human cells; Day 9): 432 mm^3; Mean tumour volume (HT29 human cells; Day 11): 511 mm^3; Mean tumour volume (HT29 human cells; Day 14): 681 mm^3; Mean tumour volume (HT29 human cells; Day 16): 676 mm^3; Mean tumour volume (HT29 human cells; Day 18): 824 mm^3
–,–,–,–,–,–,–,–,–,–,N.N.[Cl][Pt][Cl] [Cisplatin],IC50 (A549 cell line; [2]): 1200 nM; IC50 (DU145 cell line): 540 nM; IC50 (HT29 cell line): 930 nM; IC50 (PC3 cell line): 1400 nM; IC50 (LNCap cell line; [3]): 800 nM; IC50 (LNCap cell line; [2]): 700 nM; IC50 (MCF7 cell line; [3]): 800 nM; IC50 (MCF7 cell line; [2]): 650 nM; IC50 (K562 cell line; [2]): 820 nM; IC50 [1]: 800 nM
0.03,0.03,0.2,0.27,0.15,0.51,0.09,0.026,0.039,0.42,CC(=O)O[C@@]12CO[C@@H]1C[C@H](O)[C@@]1(C)C(=O)[C@H](O)C3=C(C)[C@@H](OC(=O)[C@H](O)[C@@H](NC(=O)OC(C)(C)C)c4ccccc4)C[C@@](O)([C@@H](OC(=O)c4ccccc4)[C@H]21)C3(C)C [Docetaxel],–
4,15,15,16,11,28,22,3.9,14,8.5,COc1cccc2c1C(=O)c1c(O)c3c(c(O)c1C2=O)C[C@@](O)(C(=O)CO)C[C@@H]3O[C@H]1C[C@H](N)[C@H](O)[C@H](C)O1 [Doxorubicin],–
–,–,–,3.2,2.7,> 3.3,2.1,1.2,1.1,> 3.3,CC(=O)O[C@H]1C(=O)[C@@]2(C)[C@H]([C@H](OC(=O)c3ccccc3)[C@]3(O)C[C@H](OC(=O)[C@H](O)[C@@H](NC(=O)c4ccccc4)c4ccccc4)C(C)=C1C3(C)C)[C@]1(OC(C)=O)CO[C@@H]1C[C@@H]2O [Paclitaxel],IC50 (A549 cell line; [4]): 3 nM; IC50 (MCF7 cell line; [4]): 1 nM
–,–,–,–,–,–,–,–,–,–,"C[C@@H]1CC[C@@]2(OC1)O[C@H]1C[C@H]3[C@@H]4CC=C5C[C@@H](O[C@@H]6O[C@H](CO)[C@@H](O)[C@H](O)[C@H]6O[C@@H]6O[C@@H](C)[C@H](O)[C@@H](O)[C@H]6O)CC[C@]5(C)[C@H]4CC[C@]3(C)[C@H]1[C@@H]2C [Prosapogenin A, diosgenin Rha2, Glc]","IC50 (A549 cell line; [7]): 2000 nM; Vincristine Dose Reduction (LNCap cell line): effectively zero reduction; IC50 (LNCap cell line; [3]): 2000 nM; Vincristine Dose Reduction (MCF7 cell line): effectively zero reduction; IC50 (MCF7 cell line; [3]): 2000 nM; IC50 (MCF7 cell line; [7]): 2000 nM; IC50 (K562 cell line; Example 6, value used to make up 50:50 IC50 mixtures, read-out: IC50 values used in assay): 2000 nM; IC50 [1]: 2000 nM"
0.5,0.5,2.5,6,2.9,2.4,1.1,0.49,0.49,0.21,CC[C@]1(O)C[C@H]2CN(CCc3c([nH]c4ccccc34)[C@@](C(=O)OC)(c3cc4c(cc3OC)N(C=O)[C@H]3[C@@](O)(C(=O)OC)[C@H](OC(C)=O)[C@]5(CC)C=CCN6CC[C@]43[C@@H]65)C2)C1 [Vincristine],–

Compound,IC50 (LNCap cell line; [5]) [nM],IC50 (MCF7 cell line; [5]) [nM],IC50 ([1]; Homo sapiens) [nM],IC50 (A549 cell line; [6]) [nM],"IC50 (DU145 cell line; Homo sapiens, DU-145, 144 h) [nM]","IC50 (HT29 cell line; Homo sapiens, HT-29, 144 h) [nM]","IC50 (PC3 cell line; Homo sapiens, PC-3, 144 h) [nM]",IC50 (LNCap cell line; [6]) [nM],IC50 (MCF7 cell line; [6]) [nM],IC50 (K562 cell line; [6]) [nM],further results
"C[C@@H]1CC[C@@]2(OC1)O[C@H]1C[C@H]3[C@@H]4CC=C5C[C@@H](O[C@@H]6O[C@H](CO)[C@@H](O[C@@H]7O[C@@H](C)[C@H](O)[C@@H](O)[C@H]7O)[C@H](O)[C@H]6O[C@@H]6O[C@@H](C)[C@H](O)[C@@H](O)[C@H]6O)CC[C@]5(C)[C@H]4CC[C@]3(C)[C@H]1[C@@H]2C [Dioscin, diosgenin Rha2, [Rha4], Glc]",1000,1000,1000,–,–,–,–,–,–,–,"IC50 (A549 cell line; [4]): 1000 nM; Vincristine Dose Reduction (LNCap cell line): consistent reduction in dosage; Vincristine Dose Reduction (MCF7 cell line): consistent reduction in dosage; IC50 (K562 cell line; Homo sapiens, 144 h, Example 6, value used to make up 50:50 IC50 mixtures, read-out: IC50 values used in assay): 1000 nM"
